{
  "source": "patent US10175221B2",
  "about": "“Detection device to identify markers dissolved in a liquid by means of a measurement of resistivity variation, detection method and use of marker and detection device” (SICPA HOLDING SA, priority 2014, dated 2019)",
  "experiment": "Solubility of the tested additives into diesel fuel",
  "data": [
    {"molecule": "CCCCN(CCO)CCO", "note": "[N-butyldiethanolamine]", "values": [
      {"measurement": "Maximum evaluated concentration of marker soluble into diesel fuel", "setting": "Table 1", "result": "<100", "unit": "ppm"},
      {"measurement": "Maximum evaluated concentration of marker soluble into diesel fuel", "setting": "Table 2", "result": "<100", "unit": "ppm"}
    ]}
  ]
}
